{"source": "ChEMBL document CHEMBL1201862", "about": "“PubChem BioAssay data set” (2004)", "key": {"[1]": {"target": "Nuclear receptor subfamily 5 group A member 2 (Homo sapiens, UniProt O00482)", "sequence (O00482 whole entry)": "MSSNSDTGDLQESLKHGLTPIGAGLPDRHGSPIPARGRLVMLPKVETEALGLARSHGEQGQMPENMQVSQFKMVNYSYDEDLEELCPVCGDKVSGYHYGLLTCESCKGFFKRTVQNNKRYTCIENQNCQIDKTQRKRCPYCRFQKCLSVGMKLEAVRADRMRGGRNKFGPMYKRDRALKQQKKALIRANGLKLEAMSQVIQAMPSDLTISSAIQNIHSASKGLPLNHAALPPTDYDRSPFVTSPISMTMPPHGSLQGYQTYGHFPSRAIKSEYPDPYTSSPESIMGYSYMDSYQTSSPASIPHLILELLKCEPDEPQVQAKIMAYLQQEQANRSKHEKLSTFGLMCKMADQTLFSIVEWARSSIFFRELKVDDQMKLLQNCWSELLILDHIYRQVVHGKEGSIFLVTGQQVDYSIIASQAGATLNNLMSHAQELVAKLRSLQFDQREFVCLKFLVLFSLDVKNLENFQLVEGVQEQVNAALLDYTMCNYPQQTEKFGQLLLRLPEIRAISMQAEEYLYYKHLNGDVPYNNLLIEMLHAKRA", "assay_type": "functional, cell-based"}, "[2]": {"target": "Steroidogenic factor 1 (Homo sapiens, UniProt Q13285)", "sequence (Q13285 whole entry)": "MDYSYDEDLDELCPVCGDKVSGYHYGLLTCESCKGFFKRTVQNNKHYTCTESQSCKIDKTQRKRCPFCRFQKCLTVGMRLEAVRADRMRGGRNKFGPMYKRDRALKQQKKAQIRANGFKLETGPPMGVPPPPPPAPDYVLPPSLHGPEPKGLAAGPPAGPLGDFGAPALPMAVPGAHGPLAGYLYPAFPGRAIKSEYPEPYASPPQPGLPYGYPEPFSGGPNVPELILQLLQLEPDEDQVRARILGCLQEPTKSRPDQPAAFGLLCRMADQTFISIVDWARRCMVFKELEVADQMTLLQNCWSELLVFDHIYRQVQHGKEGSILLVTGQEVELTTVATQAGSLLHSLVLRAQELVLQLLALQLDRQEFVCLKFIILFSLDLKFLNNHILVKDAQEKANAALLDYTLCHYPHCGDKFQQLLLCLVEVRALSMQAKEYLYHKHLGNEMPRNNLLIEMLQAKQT", "assay": "Counterscreen for inverse agonists of the liver receptor homolog-1 (LRH-1; NR5A2): Luminescence-based cell-based high throughput dose response assay to identify inverse agonists of the Steroidogenic Factor 1 Nuclear Receptor (SF1; NR5A1).", "assay_type": "functional"}, "[3]": {"assay": "StAR promoter reporter inhibition counter-screen, dose response, counter-screen for LRH-1 inverse agonist project, cell-based, luminescence, luciferase reporter (AID 651969)", "assay_type": "functional"}, "[4]": {"assay": "cytotoxicity toward NIH3T3 fibroblasts, dose response, counter-screen, cell-based, ATP luminescence, mouse fibroblasts (AID 2010);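 also: cells exposed to compound for about 90 hours before reading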", "assay_type": "functional"}, "[5]": {"assay": "inhibitors of intracellular T. cruzi replication, confirmation, NIH3T3 host cells, beta-gal luminescence (AID 2044);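 also: luminescent beta-galactosidase reporter signal from transgenic T. cruzi replicating inside host cells; inhibitors lower the luminescence signal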", "assay_type": "functional, cell-based"}, "[6]": {"target": "NAD-dependent protein deacylase sirtuin-5, mitochondrial (Homo sapiens, UniProt Q9NXA8)", "sequence (Q9NXA8 whole entry)": "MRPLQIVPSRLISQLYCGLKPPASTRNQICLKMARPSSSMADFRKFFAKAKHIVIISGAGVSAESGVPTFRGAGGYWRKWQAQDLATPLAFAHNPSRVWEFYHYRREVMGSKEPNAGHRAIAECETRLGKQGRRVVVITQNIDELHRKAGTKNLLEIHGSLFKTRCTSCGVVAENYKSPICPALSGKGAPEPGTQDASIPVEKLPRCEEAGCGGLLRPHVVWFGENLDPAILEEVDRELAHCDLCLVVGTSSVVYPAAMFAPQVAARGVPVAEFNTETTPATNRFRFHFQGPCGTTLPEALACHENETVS", "assay": "SIRT5 desuccinylase inhibitors, dose response, biochemical, fluorescence imaging, cherry-pick, set 5 (AID 720591);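 also: desuccinylation of succinyl peptide AMC substrate read as fluorescence after trypsin release; potency of inhibitors that lower fluorescence and may act on trypsin instead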"}, "[7]": {"target": "T1, Beta-lactamase (Pseudomonas aeruginosa, UniProt Q79MP6)", "T1 sequence (Q79MP6 whole entry)": "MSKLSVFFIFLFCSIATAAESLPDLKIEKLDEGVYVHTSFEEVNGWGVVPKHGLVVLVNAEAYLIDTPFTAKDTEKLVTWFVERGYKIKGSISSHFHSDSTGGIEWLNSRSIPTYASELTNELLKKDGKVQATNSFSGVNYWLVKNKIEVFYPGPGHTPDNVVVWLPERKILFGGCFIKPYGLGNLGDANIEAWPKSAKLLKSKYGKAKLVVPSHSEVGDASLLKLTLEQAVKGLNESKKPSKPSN", "assay": "IMP-1 metallo-beta-lactamase inhibitors, dose response, selectivity assay for VIM-2 inhibitor project, biochemical, epi-absorbance (AID 1920)"}, "[8]": {"target": "Beta-lactamase (Salmonella choleraesuis (strain SC-B67), UniProt Q5J463)", "sequence (Q5J463 whole entry)": "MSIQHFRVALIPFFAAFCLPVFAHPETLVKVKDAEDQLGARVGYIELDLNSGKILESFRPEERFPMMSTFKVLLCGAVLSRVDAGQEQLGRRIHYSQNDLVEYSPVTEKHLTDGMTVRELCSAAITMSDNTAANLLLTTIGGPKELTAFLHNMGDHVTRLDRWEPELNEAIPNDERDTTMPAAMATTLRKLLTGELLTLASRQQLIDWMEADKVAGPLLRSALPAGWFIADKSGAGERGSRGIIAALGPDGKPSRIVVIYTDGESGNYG", "assay": "Epi-absorbance-based counterscreen for selective VIM-2 inhibitors: dose response biochemical high throughput screening assay to identify inhibitors of TEM-1 serine-beta-lactamase."}, "[9]": {"target": "Dual specificity tyrosine-phosphorylation-regulated kinase 1A (Rattus norvegicus, UniProt Q63470)", "assay_type": "biochemical, Homo sapiens"}, "[10]": {"target": "T1, Beta-lactamase", "assay": "[…] counterscreen for selective VIM-2 inhibitors: dose response biochemical high throughput screening assay to identify inhibitors of IMP-1 metallo-beta-lactamase."}, "[11]": {"target": "T2, Methionyl-tRNA synthetase, putative (Trypanosoma brucei brucei, UniProt Q38C91)", "T2 sequence (Q38C91 whole entry)": "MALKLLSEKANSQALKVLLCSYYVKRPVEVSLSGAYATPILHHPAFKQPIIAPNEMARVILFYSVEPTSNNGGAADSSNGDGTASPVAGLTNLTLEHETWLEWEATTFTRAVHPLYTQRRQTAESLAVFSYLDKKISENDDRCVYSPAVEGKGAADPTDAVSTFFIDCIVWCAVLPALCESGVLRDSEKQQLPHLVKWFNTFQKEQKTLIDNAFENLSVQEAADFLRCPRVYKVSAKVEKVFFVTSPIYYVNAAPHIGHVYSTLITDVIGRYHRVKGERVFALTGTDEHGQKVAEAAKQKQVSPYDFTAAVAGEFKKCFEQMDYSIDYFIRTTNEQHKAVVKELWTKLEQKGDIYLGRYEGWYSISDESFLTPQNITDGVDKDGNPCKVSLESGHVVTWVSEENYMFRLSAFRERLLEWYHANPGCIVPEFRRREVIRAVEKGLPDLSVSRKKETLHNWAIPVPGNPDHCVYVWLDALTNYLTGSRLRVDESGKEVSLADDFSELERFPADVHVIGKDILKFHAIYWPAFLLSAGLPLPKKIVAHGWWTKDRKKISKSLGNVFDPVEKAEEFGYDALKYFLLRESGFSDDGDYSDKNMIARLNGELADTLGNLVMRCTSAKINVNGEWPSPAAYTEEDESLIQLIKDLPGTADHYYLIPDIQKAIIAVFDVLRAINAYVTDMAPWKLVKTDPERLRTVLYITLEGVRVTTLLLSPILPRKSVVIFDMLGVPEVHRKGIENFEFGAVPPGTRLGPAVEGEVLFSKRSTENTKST", "assay_type": "functional, Trypanosoma brucei brucei strain 927/4 GUTat10.1"}, "[12]": {"target": "T2, Methionyl-tRNA synthetase, putative", "assay_type": "functional, Trypanosoma brucei brucei strain 927/4 GUTat10.1", "remark": "listed apart in the source"}, "[13]": {"assay": "Counterscreen for inhibitors of Trypanosoma brucei methionyl tRNA synthetase (MetRS): Luminescence-based cell-based high throughput dose response assay to identify compounds that are cytotoxic to Jurkat human T lymphocyte cells.", "assay_type": "functional"}, "[14]": {"assay": "HepG2 cell cytotoxicity, dose response, cytotoxicity control for Shn3 inhibitor project, CellTiter-Glo, cherry-picked (AID 624134)", "assay_type": "functional, cell-based"}, "[15]": {"target": "T3, Caspase-6 (Homo sapiens, UniProt P55212)", "T3 sequence (P55212 whole entry)": "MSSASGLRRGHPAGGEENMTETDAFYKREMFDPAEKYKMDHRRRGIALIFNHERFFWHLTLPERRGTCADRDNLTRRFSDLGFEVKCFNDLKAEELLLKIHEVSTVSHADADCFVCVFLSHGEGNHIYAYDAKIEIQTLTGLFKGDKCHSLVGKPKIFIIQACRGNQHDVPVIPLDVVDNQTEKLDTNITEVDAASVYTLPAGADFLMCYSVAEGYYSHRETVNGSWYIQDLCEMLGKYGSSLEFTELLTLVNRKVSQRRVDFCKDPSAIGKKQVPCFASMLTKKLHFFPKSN", "assay": "human caspase-6 inhibitors, dose response, biochemical, VEID-R110 fluorescence, cherry-pick (AID 720632)"}, "[16]": {"assay": "Shn3 3'UTR reporter inhibitors, dose response, cell-based, Clone20 osteoblasts, firefly luciferase, cherry-picked (AID 624132)", "assay_type": "functional"}, "[17]": {"assay": "control 3'UTR Renilla luciferase suppression, dose response, counter-screen for Shn3 inhibitor project, cell-based, Clone20-Shn3RL, cherry-picked (AID 624133)", "assay_type": "functional"}, "[18]": {"target": "T4, Sentrin-specific protease 1 (Homo sapiens, UniProt Q9P0U3)", "T4 sequence (Q9P0U3 whole entry)": "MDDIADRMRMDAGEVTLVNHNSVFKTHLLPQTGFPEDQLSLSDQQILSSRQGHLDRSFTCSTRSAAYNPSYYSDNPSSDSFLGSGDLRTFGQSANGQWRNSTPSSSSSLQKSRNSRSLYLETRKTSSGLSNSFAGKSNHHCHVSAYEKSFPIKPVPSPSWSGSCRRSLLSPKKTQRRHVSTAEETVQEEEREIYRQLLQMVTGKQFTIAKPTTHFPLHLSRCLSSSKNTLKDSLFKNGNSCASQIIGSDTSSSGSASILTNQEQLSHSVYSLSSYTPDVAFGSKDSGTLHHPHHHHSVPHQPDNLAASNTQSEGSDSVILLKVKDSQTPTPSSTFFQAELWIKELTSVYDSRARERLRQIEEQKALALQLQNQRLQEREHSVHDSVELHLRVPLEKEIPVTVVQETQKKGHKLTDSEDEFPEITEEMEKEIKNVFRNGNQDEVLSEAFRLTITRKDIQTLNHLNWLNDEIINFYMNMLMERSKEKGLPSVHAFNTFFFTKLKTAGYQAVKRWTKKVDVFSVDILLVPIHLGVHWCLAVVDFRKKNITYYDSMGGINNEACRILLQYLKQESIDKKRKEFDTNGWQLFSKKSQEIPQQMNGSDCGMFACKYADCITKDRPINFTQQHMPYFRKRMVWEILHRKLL", "assay": "Dose response confirmation of small molecule inhibitors of the catalytic domain of the SUMO protease, SENP1 in a FRET assay.", "assay_type": "functional", "details": "read-out: IC50_Mean"}, "[19]": {"target": "T4, Sentrin-specific protease 1", "assay": "potency of human SENP1 inhibitors, dose response, biochemical, kinetic FRET (AID 651697)", "assay_type": "functional", "details": "read-out: IC50_Mean"}, "[20]": {"assay": "ADAM10 inhibitors, peptide cleavage, dose response, biochemical, QFRET (AID 743254);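 also: ADAM10 enzyme with the DM2 quenched FRET peptide as substrate; EDANS fluorescence gain as the protease cuts the substrate; inhibitor potency against ADAM10 proteolytic activity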"}, "[21]": {"target": "Disintegrin and metalloproteinase domain-containing protein 17 (Homo sapiens, UniProt P78536)", "sequence (P78536 whole entry, the tested form may be a part)": "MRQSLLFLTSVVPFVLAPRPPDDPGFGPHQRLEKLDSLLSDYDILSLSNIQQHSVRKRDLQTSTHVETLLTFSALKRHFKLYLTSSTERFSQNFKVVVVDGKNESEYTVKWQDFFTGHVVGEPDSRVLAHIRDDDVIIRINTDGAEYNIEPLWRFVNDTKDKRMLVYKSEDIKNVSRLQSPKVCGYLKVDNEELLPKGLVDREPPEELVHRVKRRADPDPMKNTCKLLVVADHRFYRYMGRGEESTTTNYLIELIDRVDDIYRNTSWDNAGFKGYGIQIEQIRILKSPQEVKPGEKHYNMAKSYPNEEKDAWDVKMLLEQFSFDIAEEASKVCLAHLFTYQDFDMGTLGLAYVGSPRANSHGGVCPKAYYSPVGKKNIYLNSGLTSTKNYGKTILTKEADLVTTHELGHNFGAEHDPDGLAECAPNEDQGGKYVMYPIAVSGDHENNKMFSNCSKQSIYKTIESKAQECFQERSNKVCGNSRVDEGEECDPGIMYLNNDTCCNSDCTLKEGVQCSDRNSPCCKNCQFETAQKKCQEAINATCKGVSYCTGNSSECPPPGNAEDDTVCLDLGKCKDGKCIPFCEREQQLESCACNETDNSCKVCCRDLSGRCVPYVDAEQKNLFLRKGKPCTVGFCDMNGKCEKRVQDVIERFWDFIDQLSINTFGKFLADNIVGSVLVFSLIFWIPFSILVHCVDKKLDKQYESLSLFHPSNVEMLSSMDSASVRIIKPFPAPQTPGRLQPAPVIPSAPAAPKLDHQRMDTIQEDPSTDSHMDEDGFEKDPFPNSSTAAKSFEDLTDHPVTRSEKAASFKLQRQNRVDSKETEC", "assay": "ADAM17 protease inhibitors, dose response, counter-screen for ADAM10 exosite inhibitor project, biochemical, quenched FRET substrate (AID 743253)"}, "[22]": {"target": "Albumin (Bos taurus, UniProt P02769)", "sequence (P02769 whole entry)": "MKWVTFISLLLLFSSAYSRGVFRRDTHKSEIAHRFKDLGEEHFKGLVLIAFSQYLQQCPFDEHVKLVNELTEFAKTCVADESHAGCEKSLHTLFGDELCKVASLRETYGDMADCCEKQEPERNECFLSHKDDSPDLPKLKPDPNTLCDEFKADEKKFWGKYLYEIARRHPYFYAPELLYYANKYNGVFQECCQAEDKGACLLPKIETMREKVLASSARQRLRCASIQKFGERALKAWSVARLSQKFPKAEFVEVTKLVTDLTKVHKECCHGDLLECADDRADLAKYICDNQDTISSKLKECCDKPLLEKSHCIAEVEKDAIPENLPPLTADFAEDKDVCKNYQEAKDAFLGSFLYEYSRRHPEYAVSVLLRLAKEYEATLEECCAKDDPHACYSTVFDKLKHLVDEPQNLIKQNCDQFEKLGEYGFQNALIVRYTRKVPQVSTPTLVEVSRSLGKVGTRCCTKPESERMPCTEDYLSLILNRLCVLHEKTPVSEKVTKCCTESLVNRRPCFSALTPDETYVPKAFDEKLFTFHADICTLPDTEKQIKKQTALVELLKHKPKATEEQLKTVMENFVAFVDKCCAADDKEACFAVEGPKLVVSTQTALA", "assay": "Counterscreen for inhibitors of T-cell receptor (TCR)-CD3 interaction: Fluorescence-based biochemical high throughput dose response assay to identify inhibitors of T-cell receptor (TCR)-CD3 interaction using a TAMRA-labeled BSA probe.", "assay_type": "functional"}}, "note": "The source made the active and inactive calls.", "data": [{"molecule": "CN1CCN(c2ccc(S(=O)(=O)N3CCCCC3)cc2NC(=O)COc2ccc([N+](=O)[O-])cc2)CC1", "values": [{"measurement": "IC50", "setting": "[1]", "value": "35.9 µM (inactive)"}, {"measurement": "IC50", "setting": "[2]", "value": "1.48 µM (active)"}, {"measurement": "IC50", "setting": "[3]", "value": "35.9 µM (inactive)"}, {"measurement": "EC50", "setting": "[4]", "value": "> 30 µM (not active)"}, {"measurement": "EC50", "setting": "[5]", "value": "0.353 µM (active)"}]}, {"molecule": "COc1ccc(CC(=O)NC(C)c2nnc(SCCOc3ccc(OC)cc3)n2C)cc1", "note": "(stereo not drawn)", "values": [{"measurement": "AC50", "setting": "[6]", "value": "24.2 µM (active)"}]}, {"molecule": "O=C(O)c1[nH]c2ccc(Cl)cc2c1CCN1C(=O)c2ccccc2C1=O", "values": [{"measurement": "IC50", "setting": "[7]", "value": "> 59.6 µM (inactive)"}, {"measurement": "IC50", "setting": "[8]", "value": "> 59.6 µM (inactive)"}, {"measurement": "AC50", "setting": "[9]", "value": "13.6 µM (active)"}, {"measurement": "IC50", "setting": "[10]", "value": "> 59.6 µM (inactive)"}]}, {"molecule": "Clc1cccc(CNc2nc(-c3cccnc3)nc3ccccc23)c1", "values": [{"measurement": "IC50", "setting": "[11]", "value": "32 µM (inactive)"}, {"measurement": "IC50", "setting": "[12]", "value": "16.4 µM (inactive)"}, {"measurement": "EC50", "setting": "[4]", "value": "> 60 µM (not active)"}, {"measurement": "EC50", "setting": "[5]", "value": "0.952 µM (active)"}, {"measurement": "IC50", "setting": "[13]", "value": "41.9 µM (inactive)"}]}, {"molecule": "COc1ccc(-c2cc(C(F)(F)F)nc(N3CCN(C)CC3)n2)cc1", "values": [{"measurement": "IC50", "setting": "[7]", "value": "> 59.6 µM (inactive)"}, {"measurement": "IC50", "setting": "[8]", "value": "> 59.6 µM (inactive)"}, {"measurement": "IC50", "setting": "[10]", "value": "> 59.6 µM (inactive)"}]}, {"molecule": "CC1CCCC(C)N1C(=O)CSc1nnc(NC(=O)c2cccs2)s1", "note": "(stereo not drawn)", "values": [{"measurement": "IC50", "setting": "[7]", "value": "> 59.6 µM (inactive)"}, {"measurement": "IC50", "setting": "[8]", "value": "> 59.6 µM (inactive)"}, {"measurement": "IC50", "setting": "[10]", "value": "> 59.6 µM (inactive)"}]}, {"molecule": "Cc1cc(C(=O)NNS(=O)(=O)c2cc(C(=O)O)ccc2Cl)c(C)n1-c1ccccc1", "values": [{"measurement": "AC50", "setting": "[14]", "value": "> 70 µM (inactive)"}, {"measurement": "AC50", "setting": "[15]", "value": "23.2 µM (active)"}, {"measurement": "AC50", "setting": "[16]", "value": "25.7 µM (active)"}, {"measurement": "AC50", "setting": "[17]", "value": "16.9 µM (active)"}]}, {"molecule": "Cc1cc(NC(=O)CSc2nc3ccccc3cc2C#N)no1", "values": [{"measurement": "IC50", "setting": "[18]", "value": "11 µM (active)"}, {"measurement": "IC50", "setting": "[19]", "value": "19.3 µM (active)"}]}, {"molecule": "COC(=O)c1ccc(-c2cc3onc(-c4ccccc4)c3c(=O)n2C)cc1", "values": [{"measurement": "IC50", "setting": "[20]", "value": "> 69.5 µM (inactive)"}, {"measurement": "IC50", "setting": "[21]", "value": "> 69.5 µM (inactive)"}]}, {"molecule": "COc1ccc(C(=O)NNC(=S)NC(=O)c2cccnc2)cc1", "values": [{"measurement": "IC50", "setting": "[22]", "value": "> 94.1 µM (inactive)"}]}, {"molecule": "CCCc1cc(=O)oc2cc(OCC(=O)NCc3ccccn3)ccc12", "values": [{"measurement": "IC50", "setting": "[1]", "value": "35.9 µM (inactive)"}, {"measurement": "IC50", "setting": "[2]", "value": "1.97 µM (active)"}, {"measurement": "IC50", "setting": "[3]", "value": "35.9 µM (inactive)"}]}]}
